From patent EP0292191A1, “2-(Substituted methyl)-1-alkylcarbapenem derivatives” (Merck & Co., Inc., priority 1987, dated 1988)

Assays:
Details in all cases: relative to thienamycin (=1.0)
[1] = system: E. coli; test: Agar disc-diffusion assay, relative antibacterial potency; type: cell-based
Experimental: (§1) The antibacterial activities of the compounds of this invention illustrated in the examples were determined using the following method.
(§2) Antibacterial activities were determined by the disc-diffusion assay described by Bauer et al., Amer. J. Clin. Pathol., 45, 493 (1966), except that an agar thickness of 0.2 cm was used. Thienamycin or imipenem was used as the internal standard. For maximum reproducibility, the inner, completely clear region of the zone of inhibition was measured. Inhibiting concentration at the edge of the zone was computed for each test compound using equation (3) (rearranged) reported by Humphrey and Lightbown in J. Gen. Microbiol., 7, 129 (1952), which takes into account differing molecular weights and resulting diffusion constants. Ratios of the geometric means of the inhibitory concentrations to that of thienamycin were determined for each test compound.
(§3) Antibacterial potencies were determined using standard agar disc diffusion assays and are reported relative to thienamycin (=1.0). Dehydropeptidase-I (DHP-I) susceptibilities were determined by the method of Kropp et al., Antimicrobial Agents Chemother., 22, 62-70 (1982), and are reported relative to thienamycin (=1.0).

[2] = system: Serratia; test: as above; type: cell-based
Experimental: as §1, §2, §3

[3] = system: Enterococcus; test: as above; type: cell-based
Experimental: as §1, §2, §3

[4] = system: Klebsiella; test: as above; type: cell-based
Experimental: as §1, §2, §3

[5] = system: Proteus (Ind. + and -); test: as above; type: cell-based
Experimental: as §1, §2, §3

[6] = system: Ps. aeruginosa; test: as above; type: cell-based
Experimental: as §1, §2, §3

[7] = system: Enterobacter; test: as above; type: cell-based
Experimental: as §1, §2, §3

[8] = system: S. aureus; test: as above; type: cell-based
Experimental: as §1, §2, §3

[9] = system: Dehydropeptidase-I (DHP-I); test: Dehydropeptidase-I susceptibility (method of Kropp et al.); type: in vitro ADME
Text: Antibacterial compounds of Formula I are of the broad class known as carbapenems or 1-carbadethiapenems. Certain of these carbapenems are susceptible to attack by a renal enzyme known as dehydropeptidase (DHP). This attack or degradation may reduce the efficacy of the carbapenem antibacterial agent. Inhibitors of DHP and their use with carbapenem antibacterial agents are disclosed in the prior art. See European Patent Applications No. 79102616.4 filed July 24, 1979 (Publication No. 0 010 573); 79102615.6, filed July 24, 1979 (Publication No. 0 007 614); and 82107174.3, filed August 9, 1982 (Publication No. 0 072 014).
as §3

SMILES	Relative Antibacterial Potencies [1]	Relative Antibacterial Potencies [2]	Relative Antibacterial Potencies [3]	Relative Antibacterial Potencies [4]	Relative Antibacterial Potencies [5]	Relative Antibacterial Potencies [6]	Relative Antibacterial Potencies [7]	Relative Antibacterial Potencies [8]	DHP-I susceptibility [9]
C[C@@H](O)[C@H]1C(=O)N2C(C(=O)O)=C(CO)[C@H](C)[C@H]12 [Example 1, Potassium (1S,1′R,5R,6S)-2-hydroxymethyl-6-(1′-hydroxyethyl)-1-methylcarbapen-2-em-3-carboxylate]	2.3	4.3	1.0	2.0	3.0	0.2	3.7	0.4	0.76
CC(=O)OCC1=C(C(=O)O)N2C(=O)[C@H]([C@@H](C)O)[C@H]2[C@H]1C [Example 2, Potassium (1S,1′R,5R,6S)-2-acetoxymethyl-6-(1′-hydroxyethyl)-1-methylcarbapen-2-em-3-carboxylate]	4.0	12.1	2.8	2.5	27.9	0.09	7.0	0.7	0.52
C[C@@H](O)[C@H]1C(=O)N2C(C(=O)O)=C(CN=[N+]=[N-])[C@H](C)[C@H]12 [Example 3, Potassium (1S,1′R,5R,6S)-2-azidomethyl-6-(1′-hydroxyethyl)-1-methylcarbapen-2-em-3-carboxylate]	9.2	22.6	2.0	4.3	29.9	0.06	11.3	1.4	7.29
C[C@@H](O)[C@H]1C(=O)N2C(C(=O)O)=C(COC(N)=O)[C@H](C)[C@H]12 [Example 4, Potassium (1S,1′R,5R,6S)-2-aminocarbonyloxy methyl-6-(1′-hydroxyethyl)-1-methylcarbapen-2-em-3-carboxylate]	6.1	32	5.7	7.0	14.9	0.4	22.6	0.9	0.39
CNC(=O)OCC1=C(C(=O)O)N2C(=O)[C@H]([C@@H](C)O)[C@H]2[C@H]1C [Example 5, Potassium (1S,1′R,5R,6S)-2-methylaminocarbonyl oxymethyl-6-(1′-hydroxyethyl)-1-methylcarbapen-2-em-3-carboxylate]	5.7	16	3.7	7.0	16	0.2	9.8	0.8	0.59
C[C@@H](O)[C@H]1C(=O)N2C(C(=O)O)=C(COC(=O)Nc3ccccc3)[C@H](C)[C@H]12 [Example 6, Potassium (1S,1′R,5R,6S)-2-phenylaminocarbonyloxymethyl-6-(1′-hydroxyethyl)-1-methylcarbapen-2-em-3-carboxylate]	0.6	0.3	2.8	0.2	4.9	0.03	0.2	1.2	1.35
C[C@@H](O)[C@H]1C(=O)N2C(C(=O)O)=C(COC(=O)N(C)C)[C@H](C)[C@H]12 [Example 7, Potassium (1S,1′R,5R,6S)-2-dimethylamino carbonyloxymethyl-6-(1′-hydroxyethyl)-1-methylcarbapen-2-em-3-carboxylate]	0.6	1.4	1.2	0.4	11.3	0.04	0.8	1.4	0.29
C[C@@H](O)[C@H]1C(=O)N2C(C(=O)[O-])=C(COC(=O)NCC[n+]3ccccc3)[C@H](C)[C@H]12 [Example 8, (1S,1′R,5R,6S)-6-(1′-hydroxyethyl)-1-methyl-2-(2˝-pyridiniumethylaminocarbonyloxymethyl)carbapen-2-em-3-carboxylic acid]	0.93	2.1	2.3	1.1	2.5	0.33	2.1	0.87	0.05
C[C@@H](O)[C@H]1C(=O)N2C(C(=O)O)=C(CN)[C@H](C)[C@H]12 [Example 9, (1S,1′R,5R,6S)-2-aminomethyl-6-(1′-hydroxyethyl)-1-methylcarbapen-2-em-3-carboxylic acid]	0.2	0.2	0.3	0.2	0.2	0.4	0.3	0.6	0.06
